Target: T1, PARP-10 (Homo sapiens, UniProt Q53GL7)
T1 construct: Full length His6-PARP-1 and His6-SUMO-PARP-10 proteins we expressed and purified; His6 (N); SUMO (N); made in house
T1 sequence (Q53GL7 1-1025): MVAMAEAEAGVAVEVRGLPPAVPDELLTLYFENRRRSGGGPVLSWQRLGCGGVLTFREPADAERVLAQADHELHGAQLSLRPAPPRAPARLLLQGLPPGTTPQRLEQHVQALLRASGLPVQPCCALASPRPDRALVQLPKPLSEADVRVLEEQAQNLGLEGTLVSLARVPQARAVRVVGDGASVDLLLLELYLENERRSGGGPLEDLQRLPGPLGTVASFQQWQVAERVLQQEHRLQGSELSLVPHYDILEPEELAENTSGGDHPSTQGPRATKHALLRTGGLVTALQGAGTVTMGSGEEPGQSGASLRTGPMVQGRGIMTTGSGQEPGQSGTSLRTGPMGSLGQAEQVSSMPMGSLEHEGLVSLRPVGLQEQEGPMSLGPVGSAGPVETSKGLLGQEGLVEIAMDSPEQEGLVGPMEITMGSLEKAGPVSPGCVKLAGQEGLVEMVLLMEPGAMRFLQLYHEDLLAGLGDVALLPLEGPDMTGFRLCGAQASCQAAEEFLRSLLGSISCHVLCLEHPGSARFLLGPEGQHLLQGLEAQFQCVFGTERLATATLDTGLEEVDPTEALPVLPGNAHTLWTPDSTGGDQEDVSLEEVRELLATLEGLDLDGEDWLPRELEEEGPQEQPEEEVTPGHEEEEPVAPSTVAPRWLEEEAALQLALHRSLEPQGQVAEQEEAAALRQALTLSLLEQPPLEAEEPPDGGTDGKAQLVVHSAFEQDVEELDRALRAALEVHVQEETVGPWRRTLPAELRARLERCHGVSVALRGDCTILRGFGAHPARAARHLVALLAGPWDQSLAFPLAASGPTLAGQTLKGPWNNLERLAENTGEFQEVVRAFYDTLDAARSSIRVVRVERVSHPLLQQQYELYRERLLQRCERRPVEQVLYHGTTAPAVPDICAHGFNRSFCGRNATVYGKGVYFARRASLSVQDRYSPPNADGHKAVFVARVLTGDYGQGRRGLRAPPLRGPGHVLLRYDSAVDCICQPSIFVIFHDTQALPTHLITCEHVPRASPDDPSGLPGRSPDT
Test: In vitro PARP-10 auto-MARylation activity assay
Assay type: biochemical
Description: FIG. 5. A clickable NAD^+ PAL probe (2-ad-BAD) inhibits PARP-1 and PARP-10 activity in concentration response. (FIG. 5A) 50 nM of recombinant His6-PARP-1 was incubated with 10 μg/mL activated DNA in 100 mM NaCl, 50 mM HEPES [pH 7.4], 4 mM MgCl2, 0.2 mM TCEP for 10 min, then treated with indicated competitor (BAD or the PARP-1 inhibitor NMS-P118) for additional 10 min. 50 μM NAD^+ was then added to initiate auto-PARylation of PARP-1. After 10 min, the reaction was quenched by addition of 4× Laemmli sample buffer and boiling at 95° C. for 5 min. Protein samples were separated by SDS-PAGE, transferred onto nitrocellulose and probed with indicated antibodies. (FIG. 5B) Experiments were performed essentially as in (5A) with the exception that damaged DNA was omitted and the PARP-10 inhibitor ITK6 was used instead of NMS-P118. (FIG. 5C) Densitometry analyses of (5A) and (5B) comparing inhibitory effect of BAD on PARP-1 and PARP-10 auto-ADP-ribosylation. Data are mean±SEM of 3 independent experiments. […]
Samples were run on 10% or 12% acrylamide gels for ˜1 h at 180 V in Mini-PROTEAN Tetra cell (Biorad). […] Band intensities we quantified with ImageJ.

SMILES: NC(=O)c1cccc([C@@H]2O[C@H](COP(=O)(O)OP(=O)(O)OC[C@H]3O[C@@H](n4cnc5c(N)ncnc54)[C@H](O)[C@@H]3O)[C@@H](O)[C@H]2O)c1 [BAD, benzamide adenine dinucleotide]
- relative potency against PARP-10 compared to PARP-1 (auto-ADP-ribosylation assays, densitometry): the opposite was true
- inhibition of PARP-10 auto-MARylation (dose response, 50 μM NAD^+, anti-ADPr immunoblot): inhibited
